Legend:
[1] = target: T1, Endothelin receptor type B (Sus scrofa, UniProt P35463); assay: In vitro ability to inhibit specific [125I]ET1 binding to porcine kidney (inner medulla) membranes Endothelin B receptor
T1 sequence (P35463 whole entry): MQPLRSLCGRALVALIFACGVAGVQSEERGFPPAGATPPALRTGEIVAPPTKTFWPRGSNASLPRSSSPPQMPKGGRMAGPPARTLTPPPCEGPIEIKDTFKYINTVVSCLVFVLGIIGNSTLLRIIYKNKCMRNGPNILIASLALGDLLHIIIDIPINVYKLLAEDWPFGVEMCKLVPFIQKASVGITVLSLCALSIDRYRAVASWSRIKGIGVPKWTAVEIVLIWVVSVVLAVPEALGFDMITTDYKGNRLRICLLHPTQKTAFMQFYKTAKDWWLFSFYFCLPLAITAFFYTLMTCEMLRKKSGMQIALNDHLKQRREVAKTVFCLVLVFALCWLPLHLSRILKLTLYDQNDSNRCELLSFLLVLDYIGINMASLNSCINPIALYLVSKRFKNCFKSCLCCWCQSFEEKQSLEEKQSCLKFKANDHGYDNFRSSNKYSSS

Endothelin-1 receptor = target: T2, Endothelin-1 receptor (Rattus norvegicus, UniProt P26684); assay: In vitro ability to inhibit specific [125I]ET1 binding to rat aorta membranes Endothelin A receptor; type: tissue-based
T2 sequence (P26684 whole entry): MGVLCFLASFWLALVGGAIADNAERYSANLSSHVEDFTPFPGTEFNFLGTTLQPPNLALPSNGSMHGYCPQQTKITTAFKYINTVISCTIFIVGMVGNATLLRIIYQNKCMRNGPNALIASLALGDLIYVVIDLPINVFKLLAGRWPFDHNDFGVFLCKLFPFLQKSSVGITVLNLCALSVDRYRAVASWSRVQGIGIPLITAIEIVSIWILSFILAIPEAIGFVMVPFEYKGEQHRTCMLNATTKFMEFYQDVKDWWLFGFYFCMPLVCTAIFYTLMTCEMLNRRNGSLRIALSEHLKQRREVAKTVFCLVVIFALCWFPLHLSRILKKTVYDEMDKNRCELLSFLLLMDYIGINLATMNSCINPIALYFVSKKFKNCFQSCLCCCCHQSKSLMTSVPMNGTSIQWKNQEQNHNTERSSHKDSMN

IC50 [1] | IC50 (Endothelin-1 receptor) | Structure (SMILES)
340 nM | 3.7 nM | COc1cc(C/C(C(=O)c2cc(OC)c(OC)c(OC)c2)=C(/C(=O)O)c2ccc3nsnc3c2)cc(OC)c1OC
1600 nM | 580 nM | COc1ccc(C(=O)/C(Cc2ccc(OC(C)(C)C)cc2)=C(\C(=O)O)c2ccc3nsnc3c2)cc1
1400 nM | 3.4 nM | COc1ccc(C(=O)/C(Cc2ccc3c(c2)CCO3)=C(\C(=O)O)c2ccc3nsnc3c2)cc1
260 nM | 1.4 nM | COc1ccc(C(=O)/C(Cc2cc(OC)c(OC)c(OC)c2)=C(\C(=O)O)c2ccc3nsnc3c2)cc1C
